molecular target: T1, human TRPV1 (Homo sapiens, UniProt Q8NER1); assay: Measurement of capsaicin-induced Ca influx in human TRPV1 transformed CHO cell line using FDSS-6000; type: cell-based; conditions: concentration at which the capsaicin concentration-reaction curve is shifted two times to the right, human TRPV1 transformed CHO cells
T1 construct: expressed in transfected cells; host or cells: CHO-K1
T1 sequence (Q8NER1 whole entry): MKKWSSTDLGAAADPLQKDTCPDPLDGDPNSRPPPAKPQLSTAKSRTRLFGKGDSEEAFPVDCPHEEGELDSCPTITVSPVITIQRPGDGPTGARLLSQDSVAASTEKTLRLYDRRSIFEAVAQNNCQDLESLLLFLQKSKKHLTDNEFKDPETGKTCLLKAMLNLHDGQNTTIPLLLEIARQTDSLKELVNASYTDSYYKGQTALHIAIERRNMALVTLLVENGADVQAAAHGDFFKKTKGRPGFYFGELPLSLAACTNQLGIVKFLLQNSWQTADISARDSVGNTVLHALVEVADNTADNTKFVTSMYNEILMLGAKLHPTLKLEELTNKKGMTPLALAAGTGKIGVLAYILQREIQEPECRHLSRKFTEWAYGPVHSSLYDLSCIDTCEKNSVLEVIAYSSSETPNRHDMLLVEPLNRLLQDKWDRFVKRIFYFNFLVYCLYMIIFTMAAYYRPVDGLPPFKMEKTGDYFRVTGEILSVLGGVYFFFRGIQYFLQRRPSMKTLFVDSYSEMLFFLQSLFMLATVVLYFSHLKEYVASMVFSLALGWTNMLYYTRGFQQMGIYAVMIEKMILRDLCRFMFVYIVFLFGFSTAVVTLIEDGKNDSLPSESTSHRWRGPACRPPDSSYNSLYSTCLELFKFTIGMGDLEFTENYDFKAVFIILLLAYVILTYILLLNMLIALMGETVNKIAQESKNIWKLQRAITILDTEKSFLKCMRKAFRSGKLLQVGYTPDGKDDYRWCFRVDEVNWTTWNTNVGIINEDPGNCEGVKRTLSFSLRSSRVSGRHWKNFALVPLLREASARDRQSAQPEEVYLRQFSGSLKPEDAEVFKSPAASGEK

Row | Compound | A2 VALUE
1 | O=C(/C=C1\CCOc2cc(C(F)(F)F)ccc21)Nc1cccc2c1CC(O)CC2 (stereo not drawn) [Example 72, (E)-2-(7-trifluoromethyl-chroman-4-ylidene)-N-(7-hydroxy-5,6,7,8-tetrahydronaphthalen-1-yl)acetamide] | A (compounds of the present invention having an A2 value of less than 100 nM are represented by A)
2 | O=C(/C=C1\CCN(C(=O)C2CCCC2)c2cc(C(F)(F)F)ccc21)Nc1ccc2cccnc2c1 [Example 73, (E)-2-(1-cyclopentanecarbonyl-7-trifluoromethyl-2,3-dihydroquinolin-4(1H)-ylidene)-N-(quinolin-7-yl)acetamide] | A (compounds of the present invention having an A2 value of less than 100 nM are represented by A)
3 | CCCCC(=O)N1CC/C(=C\C(=O)Nc2cccc3ccc(O)cc23)c2ccc(C(F)(F)F)cc21 [Example 74, (E)-2-(1-pentanoyl-7-trifluoromethyl-2,3-dihydroquinolin-4(1H)-ylidene)-N-(7-hydroxynaphthalen-1-yl)acetamide] | A (compounds of the present invention having an A2 value of less than 100 nM are represented by A)
4 | O=C(/C=C1\CCN(C(=O)C2CCC2)c2cc(C(F)(F)F)ccc21)Nc1ccc2cccnc2c1 [Example 75, (E)-2-(1-cyclobutanecarbonyl-7-trifluoromethyl-2,3-dihydroquinolin-4(1H)-ylidene)-N-(quinolin-7-yl)acetamide] | A (compounds of the present invention having an A2 value of less than 100 nM are represented by A)
5 | CC(C)(C)CC(=O)N1CC/C(=C\C(=O)Nc2ccc3cccnc3c2)c2ccc(C(F)(F)F)cc21 [Example 76, (E)-2-(1-(3,3-dimethylbutanoyl)-7-trifluoromethyl-2,3-dihydroquinolin-4(1H)-ylidene)-N-(quinolin-7-yl)acetamide] | A (compounds of the present invention having an A2 value of less than 100 nM are represented by A)
6 | CC(C)CC(=O)N1CC/C(=C\C(=O)Nc2ccc3cccnc3c2)c2ccc(C(F)(F)F)cc21 [Example 77, (E)-2-(1-(3-methylbutanoyl)-7-trifluoromethyl-2,3-dihydroquinolin-4(1H)-ylidene)-N-(quinolin-7-yl)acetamide] | A (compounds of the present invention having an A2 value of less than 100 nM are represented by A)
7 | CC(C)CCC(=O)N1CC/C(=C\C(=O)Nc2ccc3cccnc3c2)c2ccc(C(F)(F)F)cc21 [Example 78, (E)-2-(1-(4-methylpentanoyl)-7-trifluoromethyl-2,3-dihydroquinolin-4(1H)-ylidene)-N-(quinolin-7-yl)acetamide] | A (compounds of the present invention having an A2 value of less than 100 nM are represented by A)
8 | CCC(C)CC(=O)N1CC/C(=C\C(=O)Nc2ccc3cccnc3c2)c2ccc(C(F)(F)F)cc21 (stereo not drawn) [Example 79, (E)-2-(1-(3-methylpentanoyl)-7-trifluoromethyl-2,3-dihydroquinolin-4(1H)-ylidene)-N-(quinolin-7-yl)acetamide] | A (compounds of the present invention having an A2 value of less than 100 nM are represented by A)
9 | CCCC(C)C(=O)N1CC/C(=C\C(=O)Nc2ccc3cccnc3c2)c2ccc(C(F)(F)F)cc21 (stereo not drawn) [Example 80, (E)-2-(1-(2-methylpentanoyl)-7-trifluoromethyl-2,3-dihydroquinolin-4(1H)-ylidene)-N-(quinolin-7-yl)acetamide] | A (compounds of the present invention having an A2 value of less than 100 nM are represented by A)
10 | CCCC(C)(C)C(=O)N1CC/C(=C\C(=O)Nc2ccc3cccnc3c2)c2ccc(C(F)(F)F)cc21 [Example 81, (E)-2-(1-(2,2-dimethylpentanoyl)-7-trifluoromethyl-2,3-dihydroquinolin-4(1H)-ylidene)-N-(quinolin-7-yl)acetamide] | A (compounds of the present invention having an A2 value of less than 100 nM are represented by A)
11 | O=C(/C=C1\CCN(C(=O)C2CCCC2)c2cc(C(F)(F)F)ccc21)Nc1cccc2c1CC(O)CC2 (stereo not drawn) [Example 82, (E)-2-(1-cyclopentanecarbonyl-7-trifluoromethyl-2,3-dihydroquinolin-4(1H)-ylidene)-N-(7-hydroxy-5,6,7,8-tetrahydronaphthalen-1-yl)acetamide] | A (compounds of the present invention having an A2 value of less than 100 nM are represented by A)
12 | CCCCC(=O)N1CC/C(=C\C(=O)Nc2cccc3c2CC(O)CC3)c2ccc(C(F)(F)F)cc21 (stereo not drawn) [Example 83, (E)-2-(1-pentanoyl-7-trifluoromethyl-2,3-dihydroquinolin-4(1H)-ylidene)-N-(7-hydroxy-5,6,7,8-tetrahydronaphthalen-1-yl)acetamide] | A (compounds of the present invention having an A2 value of less than 100 nM are represented by A)
13 | O=C(/C=C1\CCN(C(=O)C2CCC2)c2cc(C(F)(F)F)ccc21)Nc1cccc2c1CC(O)CC2 (stereo not drawn) [Example 84, (E)-2-(1-cyclobutanecarbonyl-7-trifluoromethyl-2,3-dihydroquinolin-4(1H)-ylidene)-N-(7-hydroxy-5,6,7,8-tetrahydronaphthalen-1-yl)acetamide] | A (compounds of the present invention having an A2 value of less than 100 nM are represented by A)
14 | O=C(/C=C1\CCN(C(=O)C2CCC(F)(F)CC2)c2cc(C(F)(F)F)ccc21)Nc1cccc2c1CC(O)CC2 (stereo not drawn) [Example 85, (E)-2-(1-(4,4-difluorocyclohexanecarbonyl)-7-trifluoromethyl-2,3-dihydroquinolin-4(1H)-ylidene)-N-(7-hydroxy-5,6,7,8-tetrahydronaphthalen-1-yl)acetamide] | A (compounds of the present invention having an A2 value of less than 100 nM are represented by A)
15 | CC(C)CCC(=O)N1CC/C(=C\C(=O)Nc2cccc3c2CC(O)CC3)c2ccc(C(F)(F)F)cc21 (stereo not drawn) [Example 86, (E)-2-(1-(4-methylpentanoyl)-7-trifluoromethyl-2,3-dihydroquinolin-4(1H)-ylidene)-N-(7-hydroxy-5,6,7,8-tetrahydronaphthalen-1-yl)acetamide] | A (compounds of the present invention having an A2 value of less than 100 nM are represented by A)
16 | CC(C)CC(=O)N1CC/C(=C\C(=O)Nc2cccc3c2CC(O)CC3)c2ccc(C(F)(F)F)cc21 (stereo not drawn) [Example 87, (E)-2-(1-(3-methylbutanoyl)-7-trifluoromethyl-2,3-dihydroquinolin-4(1H)-ylidene)-N-(7-hydroxy-5,6,7,8-tetrahydronaphthalen-1-yl)acetamide] | A (compounds of the present invention having an A2 value of less than 100 nM are represented by A)
17 | O=C(/C=C1\CCN(C(=O)C2CCC(F)C2)c2cc(C(F)(F)F)ccc21)Nc1cccc2c1CC(O)CC2 (stereo not drawn) [Example 88, (E)-2-(1-(3-fluorocyclopentanecarbonyl)-7-trifluoromethyl-2,3-dihydroquinolin-4(1H)-ylidene)-N-(7-hydroxy-5,6,7,8-tetrahydronaphthalen-1-yl)acetamide] | A (compounds of the present invention having an A2 value of less than 100 nM are represented by A)
18 | CC1(C(=O)N2CC/C(=C\C(=O)Nc3cccc4c3CC(O)CC4)c3ccc(C(F)(F)F)cc32)CC1 (stereo not drawn) [Example 89, (E)-2-(1-(1-methylcyclopropanecarbonyl)-7-trifluoromethyl-2,3-dihydroquinolin-4(1H)-ylidene)-N-(7-hydroxy-5,6,7,8-tetrahydronaphthalen-1-yl)acetamide] | A (compounds of the present invention having an A2 value of less than 100 nM are represented by A)
19 | CC1(C(=O)N2CC/C(=C\C(=O)Nc3cccc4c3CC(O)CC4)c3ccc(C(F)(F)F)cc32)CCC1 (stereo not drawn) [Example 90, (E)-2-(1-(1-methylcyclobutanecarbonyl)-7-trifluoromethyl-2,3-dihydroquinolin-4(1H)-ylidene)-N-(7-hydroxy-5,6,7,8-tetrahydronaphthalen-1-yl)acetamide] | A (compounds of the present invention having an A2 value of less than 100 nM are represented by A)
20 | O=C(/C=C1\CCN(C(=O)CCC(F)(F)F)c2cc(C(F)(F)F)ccc21)Nc1cccc2c1CC(O)CC2 (stereo not drawn) [Example 91, (E)-2-(1-(4,4,4-trifluorobutanoyl)-7-trifluoromethyl-2,3-dihydroquinolin-4(1H)-ylidene)-N-(7-hydroxy-5,6,7,8-tetrahydronaphthalen-1-yl)acetamide] | A (compounds of the present invention having an A2 value of less than 100 nM are represented by A)
21 | O=C(/C=C1\CCN(C(=O)CC(F)(F)F)c2cc(C(F)(F)F)ccc21)Nc1cccc2c1CC(O)CC2 (stereo not drawn) [Example 92, (E)-2-(1-(3,3,3-trifluoropropanoyl)-7-trifluoromethyl-2,3-dihydroquinolin-4(1H)-ylidene)-N-(7-hydroxy-5,6,7,8-tetrahydronaphthalen-1-yl)acetamide] | A (compounds of the present invention having an A2 value of less than 100 nM are represented by A)
22 | O=C(/C=C1\CCN(C(=O)CCCC(F)(F)F)c2cc(C(F)(F)F)ccc21)Nc1cccc2c1CC(O)CC2 (stereo not drawn) [Example 93, (E)-2-(1-(5,5,5-trifluoropentanoyl)-7-trifluoromethyl-2,3-dihydroquinolin-4(1H)-ylidene)-N-(7-hydroxy-5,6,7,8-tetrahydronaphthalen-1-yl)acetamide] | A (compounds of the present invention having an A2 value of less than 100 nM are represented by A)
23 | O=C(/C=C1\CCN(C(=O)Cc2ccccc2)c2cc(C(F)(F)F)ccc21)Nc1cccc2c1CC(O)CC2 (stereo not drawn) [Example 94, (E)-2-(1-phenylacetyl-7-trifluoromethyl-2,3-dihydroquinolin-4(1H)-ylidene)-N-(7-hydroxy-5,6,7,8-tetrahydronaphthalen-1-yl)acetamide] | A (compounds of the present invention having an A2 value of less than 100 nM are represented by A)
24 | CCC(F)(F)C(=O)N1CC/C(=C\C(=O)Nc2cccc3c2CC(O)CC3)c2ccc(C(F)(F)F)cc21 (stereo not drawn) [Example 95, (E)-2-(1-(2,2-difluorobutanoyl)-7-trifluoromethyl-2,3-dihydroquinolin-4(1H)-ylidene)-N-(7-hydroxy-5,6,7,8-tetrahydronaphthalen-1-yl)acetamide] | A (compounds of the present invention having an A2 value of less than 100 nM are represented by A)
